Experimental data reported in US7612250B2, “Nuclear transfer embryo formation method” (Trustees of Tufts College, priority 2002, dated 2009).

Columns and labels:
[1] = test system: bovine oocytes / NT embryos; assay: In vitro development (7 days) of bovine NT embryos / parthenotes prepared with demecolcine; assay type: cell-based; details: for cleavage rate / morula/blastocyst rate: 7 days culture
Protocol: Progress has continued with experiments designed to compare in vitro development of control embryos (parthenotes) with that of reconstructed NT embryos prepared by conventional NT, telophase NT, IE and a novel simultaneous IE-NT paradigm (SIE/NT; see Table 1 below). As in all previous experiments, abattoir-sourced oocytes were obtained having been submitted to 26 h of maturation in ACM medi a @5%CO2 in air. Oocytes were denuded (enzyme/vortex) and activated (5 μM ionomyciin for 5 min, +/−CHX). See Example 2 for detail on methods. […] In the case of SIE/NT, donor karyoplasts (fibroblasts) were injected immediately prior to or immediately after activation. In vitro embryo development was evaluated over a period of 7 days.

[2] = test system: B6D2F1 and CF-1 mouse oocytes
Protocol: (§1) Hybrid B6D2F1 (C57BL/6×DBA/2) and outbred CF-1 female mice, 8-12 weeks of age, were used as oocyte donors. […] Females were induced to superovulate by intraperitoneal injection of 5 1U of pregnant mare serum gonadotropin (PMSG, Calbiochem) followed 48 h later by 5 1U of human chorionic gonadotropin (hCG, Calbiochem). MII oocytes were collected from oviducts 16-17 h after hCG administration in Hepes-buffered KSOM (H-KSOM, Specialty Media). Cumulus cells were dispersed by incubation in 150 units/ml of bovine testicular hyaluronidase (Sigma) in H-KSOM at 37° C. for 5 min. Cumulus-free oocytes were then washed three times in fresh H-KSOM and immediately activated.
(§2) Oocytes were parthenogenetically activated by a 5-min exposure to freshly prepared 7% (v/v) ethanol in H-KSOM at 37° C. and then washed twice in H-KSOM. Removal of oocytes from ethanol was considered as time zero post-activation (p.a.). To monitor meiotic progression, activated control oocytes (EtOH groups) were cultured for up to 2 h and 15 min and fixed at 30 min intervals, starting 45 min p.a. Culture of activated oocytes was at 37° C. under 5% COZ in air in KSOM medium containing 1 mg/ml BSA and amino acids (16; Specialty Media).
(§3) Fixed oocytes were stored until processing at 4 C. in a PBS blocking solution containing 1% BSA, 0.2% powdered milk, 2% normal goat serum, 0.1 M glycine, 0.2% sodium azide and 0.01% Triton X-100.
A triple labeling protocol was used for the detection of microtubules, microfilaments and chromatin by fluorescence microscopy. Oocytes were first incubated for 1 h at 37° C. in a mixture of mouse monoclonal anti a-tubulin and anti (3-tubulin antibodies (Sigma) at a 1:1000 final dilution. After several washes in 0.1% polyvinylpyrrolidone (PVP)/PBS at room temperature, oocytes were incubated at 37° C. in PBS blocking solution for 30 min and then in a 1:150 dilution of a donkey antimouse fluorescein-conjugated IgG (Jackson ImmunoResearch) for 45 min at 37° C. Oocytes were washed again several times in 0.1% PVP/PBS and incubated at 37° C. for 30 min in 10 units/ml of Texas Red-conjugated phalloidin (Molecular Probes) to stain actin filaments. Finally, after extensive washing in 0.1% PVP/PBS, oocytes were incubated at room temperature for 15 min in 10 μLg/ml Hoechst 33258 (Molecular Probes) and mounted in 50% glycerol/PBS containing 25 mg/ml sodium azide.
Labeled oocytes were examined using a Zeiss IM-35 inverted epi-fluorescence microscope fitted with filters selective for Hoechst, fluorescene and Texas Red and a 50 W mercury lamp. Selected images were acquired using a Photometrics Cool Snap CCD camera (Roper Scientific Inc., Trenton, N.J.) running on Metamorph software (version 5.0, Universal Imaging Corp., Downington, Pa.).
Data were analyzed by x^2 test or Fisher's exact test. A probability value of P<0.05 was considered to be statistically significant.
In vivo ovulated mouse oocytes (B6D2F1, n-959; CF 1, n=999) and in vitro matured goat oocytes (n-163) were denuded activated (7% ethanol) and incubated for up to 3.5 hr in KSOM.

bovine oocytes = assay: Induced enucleation (IE) of activated bovine oocytes by demecolcine; assay type: cell-based
[3] = test system: B6D2F1 and CF-1 mouse oocytes; assay: Complete second polar body extrusion in ethanol-activated mouse oocytes treated with demecolcine; assay type: cell-based; details: demecolcine for only 15, 30 or 45 min, compared with continuous exposure; preliminary, unpublished
Protocol: as §1
Oocytes were parthenogenetically activated by a 5-min exposure to freshly prepared 7% (v/v) ethanol in H-KSOM at 37° C. and then washed twice in H-KSOM. Removal of oocytes from ethanol was considered as time zero post-activation (p.a.). […]
(§4) A triple labeling protocol was used for the detection of microtubules, microfilaments and chromatin by fluorescence microscopy. […]
(§5) Labeled oocytes were examined using a Zeiss IM-35 inverted epi-fluorescence microscope fitted with filters selective for Hoechst, fluorescene and Texas Red and a 50 W mercury lamp. […]
(§6) Data were analyzed by x^2 test or Fisher's exact test. […]

[4] = test system: B6D2F1 and CF-1 mouse oocytes; remark: listed apart in the source
Protocol: as §1, §2, §3, §4, §5, §6

[5] = IE group: fibroblast nuclei injected into IE cytoplasts 1.5-3 hpa
[6] = Induced Enucleation (IE): demecolcine 0.4 μg/ml 1.5-5 h p.a., nuclei injected 1.5-3 h p.a.
[7] = Simultaneous IE-NT (SIE/NT): karyoplasts injected immediately prior to or after activation
[8] = parthenogenetically activated and DM treated oocytes (control group)

Protocol for goat oocytes: This study was designed to characterize the kinetics and progressive phenotypes observed during induced enucleation (IE) of activated mouse and goat oocytes. In vivo ovulated mouse oocytes (B6D2F1, n-959; CF 1, n=999) and in vitro matured goat oocytes (n-163) were denuded activated (7% ethanol) and incubated for up to 3.5 hr in KSOM. […] At selected time points oocytes (n=11.50) were fixed/extracted and processed for immunofluorescence microscopy to document activation and meiotic progression based on spindle (microtubules), chromatin (H33258) and polar body (PB. microfilaments) phenotypes.

For CN[C@H]1CCc2cc(OC)c(OC)c(OC)c2-c2ccc(OC)c(=O)cc21 [demecolcine], the cleavage rate [1, 5] was 48%, the morula/blastocyst rate [1, 5] was 27% and the Blastocyst [1, 6] was 16%. For the same molecule, the Cleavage [1, 6] was 49%, the Fragmented [1, 6] was 20% and the Morula [1, 6] was 17%. For the same molecule, the Blastocyst [1, 7] was 25%, the Cleavage [1, 7] was 54% and the Fragmented [1, 7] was 18%. For the same molecule, the cleavage rate [1, 8] was 49%, the morula/blastocyst rate [1, 8] was 30% and the “enucleation rates of oocytes that completed second PB extrusion” value ([2]; CF-1, four treatments (onset 0-15 min p.a.), all time-points combined) was ~80%. The “rates of oocyte enucleation after short exposure” value ([2]; demecolcine for only 15, 30 or 45 min, compared with continuous exposure, preliminary, unpublished) was “reduced”, the “maximum IE rates” value ([2]; mouse oocytes exposed to demecolcine immediately after activation, strain-dependent) was 23-100% and the “time required for induced enucleation” value ([2]; murine oocytes) was “about 1.5 hours”. For the same molecule, the induced enucleation rate ([2]; murine oocytes, about 1.5 hours) was “greater than 50%”, the “maximum rate of IE” value (bovine oocytes; DM 0.4 μg/ml between 1.5 and 5hpa, at 5hpa) was 91% and the IE rates (bovine oocytes; DM 0.4 μg/ml, varied onset and duration, at 5hpa) was 60-91%. For the same molecule, the induced enucleation rate (bovine oocytes; bovine oocytes, about 5 hours post-activation) was “greater than 80%”, the “time required for induced enucleation” value (bovine oocytes; bovine oocytes, post-activation) was “about 5 hours” and the “rates of second PB extrusion after short exposure” value [3] was “slightly higher”. The “oocytes showing complete spindle rotation” value ([4]; CF-1 and B6D2F1 treated oocytes, all treatments, 135 min p.a.) was 0-9.6%, the “oocytes in which spindle rotation is completed” value ([4]; demecolcine treated oocytes, both strains) was “less than 10%” and the “time after onset of treatment at which effect on the meiotic spindle was evident” value ([4]; smaller spindles, lower MT density than untreated activated oocytes) was 15 min. The “time required for induced enucleation” value (goat oocytes) was “about 5 hours” and the induced enucleation rate (goat oocytes; 5 hours) was “greater than 80%”.
